Measured values: PubChem BioAssay (NCI)
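Cells were grown in 96-well plates and exposed to each compound for 48 hours at five concentrations; endpoints were interpolated linearly between bracketing concentrations, or set to the highest concentration if not reached. GI50: concentration for 50% inhibition of growth. At the TGI there is no net growth.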

Legend:
Assay in all cases: growth of human tumour cells (NCI), 48 h
786-0 renal = system: 786-0 renal
CCRF-CEM leukemia = system: CCRF-CEM leukemia
EKVX NSCLC = system: EKVX NSCLC
HL-60(TB) leukemia = system: HL-60(TB) leukemia
KM12 colon = system: KM12 colon
NCI-H226 lung = system: NCI-H226 lung
NCI-H460 lung = system: NCI-H460 lung
PC-3 prostate = system: PC-3 prostate
RXF 393 renal = system: RXF 393 renal
SW-620 colon = system: SW-620 colon

## COC(=O)C(CBr)CBr
786-0 renal
  TGI: 8.91 µM
CCRF-CEM leukemia
  TGI: 1.83 µM
EKVX NSCLC
  TGI: 21.5 µM
HL-60(TB) leukemia
  TGI: 1.41 µM
KM12 colon
  TGI: 24.3 µM
NCI-H226 lung
  TGI: 28.1 µM
NCI-H460 lung
  TGI: 33.1 µM
PC-3 prostate
  TGI: 23 µM
RXF 393 renal
  TGI: 4.86 µM
SW-620 colon
  TGI: 3.11 µM

## Cc1cc(C(=O)O)c(C)n1-c1cccc(C(=O)O)c1
786-0 renal
  GI50: > 100 µM
  TGI: > 100 µM
CCRF-CEM leukemia
  GI50: > 100 µM
  TGI: > 100 µM
EKVX NSCLC
  GI50: > 100 µM
  TGI: > 100 µM
HL-60(TB) leukemia
  GI50: > 100 µM
  TGI: > 100 µM
KM12 colon
  GI50: > 100 µM
  TGI: > 100 µM
NCI-H226 lung
  GI50: > 100 µM
  TGI: > 100 µM
NCI-H460 lung
  GI50: > 100 µM
  TGI: > 100 µM
PC-3 prostate
  GI50: > 100 µM
  TGI: > 100 µM
RXF 393 renal
  GI50: > 100 µM
  TGI: > 100 µM
SW-620 colon
  GI50: > 100 µM
  TGI: > 100 µM

## COCCN1CCN(Cc2ccc(-c3n[nH]c4c3C(=O)c3c(NC(=O)NN5CCOCC5)cccc3-4)cc2)CC1
786-0 renal
  GI50: 0.0336 µM
  TGI: > 10 µM
CCRF-CEM leukemia
  GI50: 0.0211 µM
EKVX NSCLC
  GI50: 0.0348 µM
HL-60(TB) leukemia
  GI50: 0.00888 µM
  TGI: 0.0453 µM
KM12 colon
  GI50: 0.0278 µM
  TGI: 0.572 µM
NCI-H226 lung
  GI50: 0.0329 µM
  TGI: > 2.46 µM
NCI-H460 lung
  GI50: 0.0274 µM
  TGI: 0.623 µM
PC-3 prostate
  GI50: 0.023 µM
  TGI: > 3.86 µM
RXF 393 renal
  GI50: 0.0189 µM
  TGI: 0.0458 µM
SW-620 colon
  GI50: 0.0242 µM
  TGI: > 6.22 µM
